Measurements published in US6599932B1, “Alpha, beta-unsaturated sulfones for treating proliferative disorders” (Temple University-Of The Commonwealth System of Higher …, priority 2000, dated 2003).

Legend:
Format in all cases: cell-based
Design in all cases: dose or concentration left out as unconfirmed
[1] = test system: prostate tumor cell line DU-145; test: Viability assay, Trypan blue exclusion, prostate tumor cell line DU-145; conditions: for cytotoxicity: Homo sapiens, DU-145, 96 hours, read-out: percent cell death (% Death), DU145; for percent cell death (% Death), DU145: 96 hours
Procedure: (§1) The effect of the sulfones on normal fibroblasts and on tumor cells of prostate, colon, lung and breast origin was examined utilizing the following cell lines: prostate tumor cell line DU-145; colorectal carcinoma cell line DLD-1; non-small cell lung carcinoma cell line H157; and breast tumor cell line BT-20. BT-20 is an estrogen-unresponsive cell line. NIH/3T3 and HFL are normal murine and human fibroblasts, respectively. BT-20, DLD-1 and H157 were grown in Dulbecco's modified Eagle's medium (DMEM) containing 10% fetal bovine serum supplemented with penicillin and streptomycin. DU145 was cultured in RPMI with 10% fetal bovine serum containing penicillin and streptomycin. NIH3T3 and HFL cells were grown in DMEM containing 10% calf serum supplemented with penicillin and streptomycin. All cell cultures were maintained at 37° C. in a humidified atmosphere of 5% CO2.
(§2) Cells were treated with test compound […] concentration and cell viability was determined after 96 hours by the Trypan blue exclusion method. Activity for each compound is reported as a range of cell induced death (% Death) with the lowest activity in the range of 5-10%.

[2] = test system: colorectal carcinoma cell line DLD-1; test: Viability assay, Trypan blue exclusion, colorectal carcinoma cell line DLD-1; conditions: for cytotoxicity: Homo sapiens, DLD-1, 96 hours, read-out: percent cell death (% Death), DLD-1; for percent cell death (% Death), DLD-1: 96 hours
Procedure: as §1, §2

[3] = test system: non-small cell lung carcinoma cell line H157; test: Viability assay, Trypan blue exclusion, non-small cell lung carcinoma cell line H157; conditions: for cytotoxicity: Homo sapiens, NCI-H157, 96 hours, read-out: percent cell death (% Death), H157; for percent cell death (% Death), H157: 96 hours
Procedure: as §1, §2

[4] = test system: breast tumor cell line BT-20; test: Viability assay, Trypan blue exclusion, breast tumor cell line BT-20; conditions: for cytotoxicity: Homo sapiens, BT-20, 96 hours, read-out: percent cell death (% Death), BT20; for percent cell death (% Death), BT20: 96 hours
Procedure: as §1, §2

| Compound | cytotoxicity [1] | cytotoxicity [2] | cytotoxicity [3] | cytotoxicity [4] | percent cell death (% Death), DU145 [1] | percent cell death (% Death), DLD-1 [2] | percent cell death (% Death), H157 [3] | percent cell death (% Death), BT20 [4] |
| --- | --- | --- | --- | --- | --- | --- | --- | --- |
| O=S(=O)(/C=C/c1ccc(Br)s1)Cc1ccc(Br)cc1 [Example 18, (E)-5-Bromo-2-thiopheneethenyl4-bromobenzylsulfone] | 5 to 10% | 5 to 10% | 5 to 10% | 5 to 10% | – | – | – | – |
| O=S(=O)(/C=C/c1ccsc1)Cc1ccc(F)cc1 [Example 22, (E)-3-Thiopheneethenyl-4-fluorobenzylsulfone] | 5 to 10% | 5 to 10% | 5 to 10% | 5 to 10% | – | – | – | – |
| O=S(=O)(/C=C/c1ccsc1)Cc1ccc(Cl)cc1 [Example 23, (E)-3-Thiopheneethenyl-4-chlorobenzylsulfone] | 40 to 50% | 40 to 50% | 40 to 50% | 40 to 50% | – | – | – | – |
| O=S(=O)(/C=C/c1ccsc1)Cc1ccc(Br)cc1 [Example 24, (E)-3-Thiopheneethenyl-4-bromobenzylsulfone] | 40 to 50% | 40 to 50% | 40 to 50% | 40 to 50% | – | – | – | – |
| O=S(=O)(/C=C/c1ccsc1)Cc1ccc(I)cc1 [Example 25, (E)-3-Thiopheneethenyl-4-iodobenzylsulfone] | 10 to 15% | 10 to 15% | 10 to 15% | 10 to 15% | – | – | – | – |
| Cc1ccc(CS(=O)(=O)/C=C/c2ccsc2)cc1 [Example 26, (E)-3-Thiopheneethenyl-4-methylbenzylsulfone] | 5 to 10% | 5 to 10% | 5 to 10% | 5 to 10% | – | – | – | – |
| COc1ccc(CS(=O)(=O)/C=C/c2ccsc2)cc1 [Example 27, (E)-3-Thiopheneethenyl-4-methoxybenzylsulfone] | 50 to 60% | 50 to 60% | 50 to 60% | 50 to 60% | – | – | – | – |
| O=S(=O)(/C=C/c1ccsc1)Cc1ccc(OC(F)(F)F)cc1 [Example 28, (E)-3-Thiopheneethenyl-4-trifloromethoxylbenzylsulfone] | – | – | – | – | + ((+)=5-10%) | + ((+)=5-10%) | + ((+)=5-10%) | + ((+)=5-10%) |
| O=S(=O)(/C=C/c1ccsc1)Cc1ccc(Cl)cc1Cl [Example 29, (E)-3-Thiopheneethenyl-2,4-dichlorobenzylsulfone] | 50 to 60% | 50 to 60% | 50 to 60% | 50 to 60% | – | – | – | – |
| O=S(=O)(/C=C/c1ccsc1)Cc1ccc(Cl)c(Cl)c1 [Example 30, (E)-3-Thiopheneethenyl-3,4-dichlorobenzylsulfone] | 5 to 10% | 5 to 10% | 5 to 10% | 5 to 10% | – | – | – | – |
| N#Cc1ccc(CS(=O)(=O)/C=C/c2ccsc2)cc1 [Example 31, (E)-3-Thiopheneethenyl-4-cyanobenzylsulfone] | 5 to 10% | 5 to 10% | 5 to 10% | 5 to 10% | – | – | – | – |
| O=[N+]([O-])c1ccc(CS(=O)(=O)/C=C/c2ccsc2)cc1 [Example 32, (E)-3-Thiopheneethenyl4-nitrobenzylsulfone] | 5 to 10% | 5 to 10% | 5 to 10% | 5 to 10% | – | – | – | – |
| O=S1(=O)C=CC(/C=C/S(=O)(=O)Cc2ccc(F)cc2)=C1 [Example 33, (E)-3-Thiophene-1,1-dioxoethenyl-4-fluorobenzylsulfone] | – | – | – | – | + ((+)=5-10%) | + ((+)=5-10%) | + ((+)=5-10%) | + ((+)=5-10%) |
| O=S1(=O)C=CC(/C=C/S(=O)(=O)Cc2ccc(Cl)cc2)=C1 [Example 34, (E)-3-Thiophene-1,1-dioxoethenyl-4chlorobenzylsulfone] | – | – | – | – | + ((+)=5-10%) | + ((+)=5-10%) | + ((+)=5-10%) | + ((+)=5-10%) |
| O=S1(=O)C=CC(/C=C/S(=O)(=O)Cc2ccc(Br)cc2)=C1 [Example 35, (E)-3-Thiophene-1,1-dioxoethenyl-4-bromobenzylsulfone] | – | – | – | – | + ((+)=5-10%) | + ((+)=5-10%) | + ((+)=5-10%) | + ((+)=5-10%) |
| O=[N+]([O-])c1ccccc1/C=C/S(=O)(=O)Cc1cccc2ccccc12 [Example 71, (E)-2-Nitrostyryl-1-(naphthylmethyl)sulfone] | 40 to 50% | – | – | 40 to 50% | – | – | – | – |
| O=[N+]([O-])c1cccc(/C=C/S(=O)(=O)Cc2cccc3ccccc23)c1 [Example 72, (E)-3-Nitrostyryl-1-(naphthylmethyl)sulfone] | 5 to 10% | – | – | 5 to 10% | – | – | – | – |
